Experimental data: PubChem BioAssay AID256 (DTP/NCI, 2004)
Values joined by “and” are separate entries in the source; they are usually repeats but may differ in a detail not shown here. Equal entries are not always repeated. Inconclusive results and toxic doses are left out.

Tested on: CD2F1 mice, L1210 leukemia ip, survival T/C
Test: NCI In Vivo Anticancer Drug Screen. Data for tumor model L1210 Leukemia (intraperitoneal) in CD2F1 (CDF1) mice
Settings: higher = longer survival
How it was run: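 Transplantable tumor in mice; compound-treated vs vehicle-treated groups. Read-out = treated/control ratio of the measured endpoint.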

[1] = endpoint: mean survival time, dose: 100.0 mg/kg/injection, schedule: Q01DX001 (ip), vehicle: saline with Tween-80
[2] = endpoint: mean survival time, dose: 100.0 mg/kg/injection, schedule: Q01DX009 (ip), vehicle: saline with Tween-80
[3] = endpoint: mean survival time, dose: 200.0 mg/kg/injection, schedule: Q01DX001 (ip), vehicle: saline with Tween-80
[4] = endpoint: mean survival time, dose: 200.0 mg/kg/injection, schedule: Q01DX009 (ip), vehicle: saline with Tween-80
[5] = endpoint: mean survival time, dose: 400.0 mg/kg/injection, schedule: Q01DX001 (ip), vehicle: saline with Tween-80
[6] = endpoint: mean survival time, dose: 100.0 mg/kg/injection, schedule: Q04DX003 (ip), vehicle: saline
[7] = endpoint: mean survival time, dose: 200.0 mg/kg/injection, schedule: Q04DX003 (ip), vehicle: saline
[8] = endpoint: mean survival time, dose: 400.0 mg/kg/injection, schedule: Q04DX003 (ip), vehicle: saline
[9] = endpoint: mean survival time, dose: 12.5 mg/kg/injection, schedule: Q01DX009 (ip), vehicle: saline with Tween-80
[10] = endpoint: mean survival time, dose: 25.0 mg/kg/injection, schedule: Q01DX009 (ip), vehicle: saline with Tween-80
[11] = endpoint: mean survival time, dose: 50.0 mg/kg/injection, schedule: Q01DX009 (ip), vehicle: saline with Tween-80
[12] = endpoint: mean survival time, dose: 100.0 mg/kg/injection, schedule: Q04DX003 (ip), vehicle: saline with Tween-80
[13] = endpoint: mean survival time, dose: 200.0 mg/kg/injection, schedule: Q04DX003 (ip), vehicle: saline with Tween-80
[14] = endpoint: mean survival time, dose: 400.0 mg/kg/injection, schedule: Q04DX003 (ip), vehicle: saline with Tween-80

## CCc1c(Br)c(CC)c(CC)c(Br)c1CC
[1]
  T/C: 105 % of control
[2]
  T/C: 104 % of control
[3]
  T/C: 95 % of control
[4]
  T/C: 101 % of control
[5]
  T/C: 103 % of control
endpoint: mean survival time, dose: 400.0 mg/kg/injection, schedule: Q01DX009 (ip), vehicle: saline with Tween-80
  T/C: 96 % of control

## Cc1ccc(NC(=O)OCCSCCOC(=O)Nc2ccc(C)cc2)cc1
endpoint: mean survival time, dose: 100.0 mg/kg/injection, schedule: Q04DX003 (ip), vehicle: other
  T/C: 93 % of control
endpoint: mean survival time, dose: 200.0 mg/kg/injection, schedule: Q04DX003 (ip), vehicle: other
  T/C: 96 % of control
endpoint: mean survival time, dose: 400.0 mg/kg/injection, schedule: Q04DX003 (ip), vehicle: other
  T/C: 93 % of control

## CN(C)CCP(=O)(O)O
[6]
  T/C: 101 % of control
[7]
  T/C: 98 % of control
[8]
  T/C: 98 % of control

## Nc1ncnc2c1c1c(=O)[nH]nnc1n2C1OC(CO)C(O)C1O (configuration not stated)
endpoint: mean survival time, dose: 3.13 mg/kg/injection, schedule: Q01DX005 (ip), vehicle: water
  T/C: 101 % of control
endpoint: mean survival time, dose: 6.25 mg/kg/injection, schedule: Q01DX005 (ip), vehicle: water
  T/C: 103 % of control
endpoint: mean survival time, dose: 12.5 mg/kg/injection, schedule: Q01DX005 (ip), vehicle: water
  T/C: 92 % of control
endpoint: mean survival time, dose: 12.5 mg/kg/injection, schedule: Q01DX009 (ip), vehicle: distilled water + Tween-80
  T/C: 113 % of control
endpoint: mean survival time, dose: 25.0 mg/kg/injection, schedule: Q01DX005 (ip), vehicle: water
  T/C: 107 % of control
endpoint: mean survival time, dose: 25.0 mg/kg/injection, schedule: Q01DX009 (ip), vehicle: distilled water + Tween-80
  T/C: 122 % of control
endpoint: mean survival time, dose: 50.0 mg/kg/injection, schedule: Q01DX005 (ip), vehicle: water
  T/C: 105 % of control
endpoint: mean survival time, dose: 50.0 mg/kg/injection, schedule: Q01DX009 (ip), vehicle: distilled water + Tween-80
  T/C: 122 % of control
endpoint: mean survival time, dose: 100.0 mg/kg/injection, schedule: Q01DX005 (ip), vehicle: water
  T/C: 107 % of control

## C1CC(N2CC2)CCC1N1CC1 (configuration not stated)
endpoint: mean survival time, dose: 6.0 mg/kg/injection, schedule: Q04DX003 (ip), vehicle: saline
  T/C: 169 % of control
endpoint: mean survival time, dose: 9.0 mg/kg/injection, schedule: Q04DX003 (ip), vehicle: saline
  T/C: 124 % of control
endpoint: mean survival time, dose: 13.0 mg/kg/injection, schedule: Q04DX003 (ip), vehicle: saline
  T/C: 110 % of control
endpoint: mean survival time, dose: 20.0 mg/kg/injection, schedule: Q04DX003 (ip), vehicle: saline
  T/C: 86 % of control

## COC(=Nc1ccccc1)SSC(C)C
endpoint: mean survival time, dose: 6.25 mg/kg/injection, schedule: Q01DX009 (ip), vehicle: saline with Tween-80
  T/C: 93 % of control and 101 % of control
[9]
  T/C: 97 % of control and 108 % of control
[10]
  T/C: 98 % of control and 104 % of control
[11]
  T/C: 98 % of control and 108 % of control
[2]
  T/C: 106 % of control
[4]
  T/C: 108 % of control

## C/C=C/C(Cc1ccc2ccccc2c1)(C(=O)OCC)C(=O)OCC
endpoint: mean survival time, dose: 50.0 mg/kg/injection, schedule: Q01DX009 (ip), vehicle: Klucel (hydroxypropylcellulose) (HPC)
  T/C: 91 % of control
endpoint: mean survival time, dose: 100.0 mg/kg/injection, schedule: Q01DX009 (ip), vehicle: Klucel (hydroxypropylcellulose) (HPC)
  T/C: 88 % of control
endpoint: mean survival time, dose: 200.0 mg/kg/injection, schedule: Q01DX009 (ip), vehicle: Klucel (hydroxypropylcellulose) (HPC)
  T/C: 94 % of control

## CCOC(=O)NCCB(O)O
endpoint: mean survival time, dose: 100.0 mg/kg/injection, schedule: Q04DX002 (ip), vehicle: saline
  T/C: 100 % of control
endpoint: mean survival time, dose: 200.0 mg/kg/injection, schedule: Q04DX002 (ip), vehicle: saline
  T/C: 88 % of control
endpoint: mean survival time, dose: 400.0 mg/kg/injection, schedule: Q04DX002 (ip), vehicle: saline
  T/C: 95 % of control

## CCOC(=O)c1nc2c(n(O)c1=N)CCC/C2=N\O
endpoint: mean survival time, dose: 100.0 mg/kg/injection, schedule: Q04DX003 (ip), vehicle: Klucel (hydroxypropylcellulose) (HPC)
  T/C: 95 % of control
endpoint: mean survival time, dose: 200.0 mg/kg/injection, schedule: Q04DX003 (ip), vehicle: Klucel (hydroxypropylcellulose) (HPC)
  T/C: 102 % of control
endpoint: mean survival time, dose: 400.0 mg/kg/injection, schedule: Q04DX003 (ip), vehicle: Klucel (hydroxypropylcellulose) (HPC)
  T/C: 91 % of control

## CC1=C2C(=O)[C@H]3[C@@H](CC=C4C[C@@H](O)CC[C@@]43C)[C@@H]2CC[C@]12O[C@@H]1C[C@H](C)CN[C@H]1[C@H]2C
[9]
  T/C: 100 % of control
[10]
  T/C: 93 % of control
[11]
  T/C: 91 % of control
[3]
  T/C: 91 % of control
[5]
  T/C: 88 % of control

## CCOC(=O)c1c(N)sc2c1CCN(Cc1ccccc1)C2
[12]
  T/C: 98 % of control
[13]
  T/C: 93 % of control
[14]
  T/C: 88 % of control

## COc1cccc2c1C(=O)c1c(O)c3c(c(O)c1C2=O)CC(O)(C(C)=O)CC3OC1CC(N)C(O)C(C)O1 (configuration not stated)
endpoint: mean survival time, dose: 0.25 mg/kg/injection, schedule: Q01DX001 (ip), vehicle: saline
  T/C: 112 % of control
endpoint: mean survival time, dose: 0.5 mg/kg/injection, schedule: Q01DX001 (ip), vehicle: saline
  T/C: 109 % of control
endpoint: mean survival time, dose: 0.63 mg/kg/injection, schedule: Q01DX009 (ip), vehicle: water
  T/C: 105 % of control
endpoint: mean survival time, dose: 1.0 mg/kg/injection, schedule: Q01DX001 (ip), vehicle: saline
  T/C: 115 % of control
endpoint: mean survival time, dose: 1.25 mg/kg/injection, schedule: Q01DX009 (ip), vehicle: water
  T/C: 108 % of control
endpoint: mean survival time, dose: 2.0 mg/kg/injection, schedule: Q01DX001 (ip), vehicle: saline
  T/C: 121 % of control
endpoint: mean survival time, dose: 2.5 mg/kg/injection, schedule: Q01DX009 (ip), vehicle: water
  T/C: 115 % of control and 105 % of control
endpoint: mean survival time, dose: 5.0 mg/kg/injection, schedule: Q01DX009 (ip), vehicle: water
  T/C: 105 % of control
endpoint: mean survival time, dose: 10.0 mg/kg/injection, schedule: Q01DX009 (ip), vehicle: water
  T/C: 117 % of control
endpoint: mean survival time, dose: 20.0 mg/kg/injection, schedule: Q01DX009 (ip), vehicle: water
  T/C: 117 % of control and 105 % of control
endpoint: mean survival time, dose: 40.0 mg/kg/injection, schedule: Q01DX009 (ip), vehicle: water
  T/C: 117 % of control
endpoint: mean survival time, dose: 80.0 mg/kg/injection, schedule: Q01DX009 (ip), vehicle: water
  T/C: 105 % of control

## NCCc1c[nH]c2ccccc12 (tested in a mixture with another compound)
[12]
  T/C: 97 % of control
[13]
  T/C: 101 % of control
[14]
  T/C: 94 % of control

## BrC(Br)(c1ccccc1)C1OCCO1
endpoint: mean survival time, dose: 50.0 mg/kg/injection, schedule: Q01DX001 (ip), vehicle: saline with Tween-80
  T/C: 107 % of control
endpoint: mean survival time, dose: 50.0 mg/kg/injection, schedule: Q04DX003 (ip), vehicle: saline with Tween-80
  T/C: 100 % of control
[1]
  T/C: 100 % of control
[12]
  T/C: 101 % of control
[3]
  T/C: 102 % of control
[13]
  T/C: 97 % of control

## CC(=O)C(C(C)=O)c1ccc([N+](=O)[O-])cc1[N+](=O)[O-].CC(=O)C(C(C)=O)c1ccc([N+](=O)[O-])cc1[N+](=O)[O-].[Cu]
endpoint: median survival time, dose: 50.0 mg/kg/injection, schedule: Q04DX002 (ip), vehicle: saline with Tween-80
  T/C: 88 % of control
endpoint: median survival time, dose: 100.0 mg/kg/injection, schedule: Q04DX002 (ip), vehicle: saline with Tween-80
  T/C: 88 % of control
endpoint: median survival time, dose: 400.0 mg/kg/injection, schedule: Q04DX002 (ip), vehicle: saline with Tween-80
  T/C: 88 % of control

## S=c1cn[nH]c2ccc(Br)cc12
endpoint: mean survival time, dose: 100.0 mg/kg/injection, schedule: Q01DX001 (ip), vehicle: other
  T/C: 96 % of control
endpoint: mean survival time, dose: 200.0 mg/kg/injection, schedule: Q01DX001 (ip), vehicle: other
  T/C: 103 % of control
endpoint: mean survival time, dose: 400.0 mg/kg/injection, schedule: Q01DX001 (ip), vehicle: other
  T/C: 92 % of control

## CCC12OC3(CC)C4C(=O)OC1C1(CC)OC4(CC)C3C(=O)OC21
endpoint: mean survival time, dose: 100.0 mg/kg/injection, schedule: Q01DX001 (ip), vehicle: saline
  T/C: 103 % of control
[6]
  T/C: 102 % of control
endpoint: mean survival time, dose: 200.0 mg/kg/injection, schedule: Q01DX001 (ip), vehicle: saline
  T/C: 102 % of control
[7]
  T/C: 100 % of control
endpoint: mean survival time, dose: 400.0 mg/kg/injection, schedule: Q01DX001 (ip), vehicle: saline
  T/C: 96 % of control
[8]
  T/C: 94 % of control

## O.O=S(=O)(O)O.[Co+3].[NH2-].[NH2-].[NH2-].[NH2-].[NH2-]
endpoint: mean survival time, dose: 200.0 mg/kg/injection, schedule: Q04DX002 (ip), vehicle: saline with Tween-80
  T/C: 123 % of control
